In one series the target is beta-galactosidase (Escherichia coli, UniProt P00722). In words: droplet microfluidic steady-state Michaelis–Menten kinetics. It is filed as biochemical.
Substrate in the series “purified protein”: CC(=O)N1c2ccc(O)cc2Oc2cc(O)ccc21
In words: purified protein. Conditions: H2O2 (co-substrate).

Sequence of beta-galactosidase (P00722 2-1024): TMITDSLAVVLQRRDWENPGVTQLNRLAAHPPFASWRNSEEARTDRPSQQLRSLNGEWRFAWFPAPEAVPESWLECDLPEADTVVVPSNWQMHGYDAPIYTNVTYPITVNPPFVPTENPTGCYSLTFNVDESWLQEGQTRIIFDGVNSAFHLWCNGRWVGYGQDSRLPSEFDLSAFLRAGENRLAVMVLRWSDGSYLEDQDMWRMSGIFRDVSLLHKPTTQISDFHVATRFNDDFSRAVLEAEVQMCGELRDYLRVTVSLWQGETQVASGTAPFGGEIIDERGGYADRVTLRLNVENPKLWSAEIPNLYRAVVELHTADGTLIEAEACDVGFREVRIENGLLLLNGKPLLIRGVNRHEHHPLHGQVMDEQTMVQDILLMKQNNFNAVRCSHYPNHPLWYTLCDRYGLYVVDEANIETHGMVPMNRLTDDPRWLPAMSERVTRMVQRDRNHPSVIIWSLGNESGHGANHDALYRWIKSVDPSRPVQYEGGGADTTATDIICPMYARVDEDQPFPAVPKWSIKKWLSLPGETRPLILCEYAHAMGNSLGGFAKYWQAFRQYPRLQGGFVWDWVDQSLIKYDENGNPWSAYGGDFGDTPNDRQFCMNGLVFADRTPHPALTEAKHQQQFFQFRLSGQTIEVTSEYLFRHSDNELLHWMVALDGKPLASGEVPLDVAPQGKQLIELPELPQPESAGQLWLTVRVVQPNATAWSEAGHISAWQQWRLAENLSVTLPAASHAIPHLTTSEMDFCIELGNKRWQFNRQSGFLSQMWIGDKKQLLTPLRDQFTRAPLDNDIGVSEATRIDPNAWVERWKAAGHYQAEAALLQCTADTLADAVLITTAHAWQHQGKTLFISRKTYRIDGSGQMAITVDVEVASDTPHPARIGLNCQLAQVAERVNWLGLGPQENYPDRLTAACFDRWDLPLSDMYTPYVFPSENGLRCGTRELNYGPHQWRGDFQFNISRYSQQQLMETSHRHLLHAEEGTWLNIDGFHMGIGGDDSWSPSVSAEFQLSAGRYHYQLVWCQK

What is called Km is the substrate concentration at which the rate is half of its maximum. In the case of `O=C1OC2(c3ccc(O[C@@H]4O[C@H](CO)[C@H](O)[C@H](O)[C@H]4O)cc3Oc3cc(O[C@@H]4O[C@H](CO)[C@H](O)[C@H](O)[C@H]4O)ccc32)c2ccccc21` [Fluorescein di-beta-D-galactopyranoside], the Km at beta-galactosidase turned out to be 19.8 ± 1.4 µM.

Regarding `O=c1ccc2nc3ccc(O[C@@H]4O[C@H](CO)[C@H](O)[C@H](O)[C@H]4O)cc3oc-2c1` [resorufin beta-D-galactopyranoside], the Michaelis-Menten constant (Km) on beta-galactosidase amounted to 408 ± 140 µM.

B1: horseradish peroxidase (Armoracia rusticana) (protein)
chain: QLTPTFYDNSCPNVSNIVRDTIVNELRSDPRIAASILRLHFHDCFVNGCDASILLDNTTSFRTEKDAFGNANSARGFPVIDRMKAAVESACPRTVSCADLLTIAAQQSVTLAGGPSWRVPLGRRDSLQAFLDLANANLPAPFFTLPQLKDSFRNVGLNRSSDLVALSGGHTFGKNQCRFIMDRLYNFSNTGLPDPTLNTTYLQTLRGLCPLNGNLSALVDFDLRTPTIFDNKYYVNLEEQKGLIQSDQELFSSPNATDTIPLVRSFANSTQTFFNAFVEAMDRMGNITPLTGTQGQIRLNCRVVNSNS
Take B1: the Michaelis-Menten constant (Km) in the series “purified protein” was 20 ± 1.8 µM.

For the origin of these results see article PMC10091362 (Lab on a Chip, 2023).
